Where “and” joins values, the source holds several entries; their conditions need not be identical. Identical values can stand only once. Calls of active or inactive are those of the source.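 Rule for the calls: active = fitted half-maximal concentration for changing background-corrected GFP signal at or below a set limit; inactive = the rest.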
Assay: modulators of MEP2-GFP levels in yeast, dose response, S. cerevisiae, flow cytometry GFP, MLPCN hits (AID 2742);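 note: GFP tag reports level of MEP2 protein as a downstream target of TOR signalling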
Details: S. cerevisiae MEP2-GFP strain, flow cytometry fluorescence, 3 h; at 33 µM (top of the series)

SMILES | GFP fluorescence (kMESF), higher = increase
CC(C)C[C@]1(c2ccccc2)ON(c2ccccc2C(F)(F)F)C1=O | 2.97 kMESF (inactive)
Cc1ccccc1OCCOC(=O)c1ccc(S(=O)(=O)N2CCCC2)cc1 | 1.52 kMESF (inactive)
O=C(/C=C/c1ccc(F)cc1)NC(=S)NNC(=O)c1cnccn1 | 4.9 kMESF (inactive)
CCn1c(=O)c(C(=O)Nc2nc3ccccc3[nH]2)c(O)c2ccccc21 | 2.38 kMESF (inactive)
C=CCOc1ccccc1C(=O)/C=C1/C(=O)Nc2ccccc21 | 3.91 kMESF (inactive)
O=C1N(c2ccccc2C(F)(F)F)O[C@]1(c1ccccc1)C1CCCC1 | 2.4 kMESF (inactive)
Clc1cccc(CN2COc3c(cc(Cl)c4cccnc34)C2)c1 | 8.07 kMESF (inactive)
O=C1C=CC(=O)N1c1cccc(-c2ccccc2)c1 | 5.31 kMESF (inactive)
COc1ccc(N=Nc2ccc(O)c3ncccc23)cc1 | 4.94 kMESF (inactive)
CN(C)NC(=S)Nc1ccc(S(=O)(=O)N2CCCCC2)cc1 | 1.92 kMESF (inactive)
CC(C)C(=O)NC(c1cccs1)c1cc([N+](=O)[O-])c2cccnc2c1O (configuration not stated) | 3.41 kMESF (inactive)
CCCc1cc(N2CCN(c3ccccn3)CC2)n2nc(C)c(-c3ccccc3)c2n1 | 3.11 kMESF (inactive)
Cc1ccc(N=c2ssnc2Cl)cc1 | 4.79 kMESF (inactive)
CCn1c(=O)c(C(C)=O)c(O)c2ccccc21 | 3.81 kMESF (inactive)
Cc1ccc(N/N=C(\C#N)C(N)=S)c(C)c1 | 4.52 kMESF (inactive)
COc1ccc(C(=O)/C=C2/C(=O)Nc3ccccc32)cc1 | 4.25 kMESF (inactive)
O=C(Oc1ccnc2cc(Cl)ccc12)N1CCOCC1 | 2.97 kMESF (inactive)
CC(=O)Oc1oc(-c2ccccc2)nc1C=Nc1ccc(N(C)C)cc1 | 3.44 kMESF (inactive)
CN(C)/C=C/C(=O)c1ccc(-c2ccc(Cl)cc2Cl)o1 | 2 kMESF (inactive)
Nc1nc2ncc(CNc3ccc(C(=O)N[C@@H](CCC(=O)O)C(=O)O)cc3)nc2c(=O)[nH]1 | 1.95 kMESF (inactive)
O=C(/C=C/Sc1ncn[nH]1)c1ccc(Cl)cc1 | 4.24 kMESF (inactive)
Cc1cc(C)c(C)c(S(=O)(=O)ON2C(=O)c3ccccc3C2=O)c1C | 4.23 kMESF (inactive)

SMILES | GFP fluorescence (kMESF), higher = increase
CCN(CC(=O)Nc1cc(S(=O)(=O)N2CCOCC2)ccc1Cl)Cc1ccccc1 | 2.25 kMESF (inactive)
COc1cccc2cc(-c3nc4ccccc4o3)c(=O)oc12 | 1.66 kMESF (inactive)
Oc1c(Br)cc(Br)cc1C=Nc1ccc2[nH]ncc2c1 | 5.46 kMESF (inactive)
Oc1c(I)cc(I)c2cccnc12 | 4.67 kMESF (inactive)
CN(C)C(=O)Oc1ccnc2cc(Cl)ccc12 | 3.58 kMESF (inactive)
O=C(/C=C/c1ccccn1)c1cc(Br)ccc1O | 4.38 kMESF (inactive)
Cc1ccc(N=Nc2ccc(O)c3ncccc23)cc1 | 3.18 kMESF (inactive)
CC1=C/C(=N\OS(=O)(=O)c2ccccc2)C(C)=CC1=O | -2.25 kMESF (inactive)
CCCc1cc(NCc2ccccn2)n2nc(C)c(-c3ccccc3)c2n1 | 2.86 kMESF (inactive)
O=C1CCN(S(=O)(=O)c2ccccc2)CCN1CCOCc1ccc(F)cc1 | 1.97 kMESF (inactive)
Cc1ccc(/C=C2\SC(=S)N(Cc3ccccc3)C2=O)o1 | 9.98 kMESF (inactive)
O=C1c2sc3nc4ccccc4n3c2C(=O)N1c1ccccc1Cl | 3.06 kMESF (inactive)
Cc1cc(C)nc(S/C=C/C(=O)c2ccccc2)n1 | 3.2 kMESF (inactive)
CCOC(=O)CS(=O)(=O)c1nc(-c2ccc(F)cc2)cc(C(F)(F)F)n1 | 5.21 kMESF (inactive)
Cc1ccc(C(=O)Sc2cccccc2=O)cc1 | 3.82 kMESF (inactive)
O=c1/c(=C/c2cccc3ccccc23)sc2ncnn12 | 4.23 kMESF (inactive)
COc1ccccc1N1C(=O)c2cccc3c(C(=O)O)ccc(c23)C1=O | 3.03 kMESF (inactive)
CCN(CC)c1ccc(/C=C2/C(=O)c3ccc(C(=O)O)cc3C2=O)cc1 | 3.08 kMESF (inactive)
COc1ccc(C(=O)NC(=S)NNC(=O)c2cnccn2)cc1OC | 2.46 kMESF (inactive)
COc1cc(/C=C/[N+](=O)[O-])ccc1O | 3.88 kMESF (inactive)
CCN(CC)C(=O)Oc1ccnc2cc(Cl)ccc12 | 11.7 kMESF (inactive)
COc1ccccc1[C@@]1(C)ON(c2ccccc2C(F)(F)F)C1=O | 5.08 kMESF (inactive)

SMILES | GFP fluorescence (kMESF), higher = increase
Cc1ccnc(N2C(=O)c3cccc4c([N+](=O)[O-])ccc(c34)C2=O)c1 | 24.6 kMESF (inactive)
Oc1ccc2ccccc2c1N=Nc1nccs1 | 4.97 kMESF (inactive)
O=C(/C=C/c1cccc([N+](=O)[O-])c1)c1ccc([N+](=O)[O-])o1 | 3.51 kMESF (inactive)
Cc1ccc2c(nc3s/c(=C\c4ccc(-c5ccccc5C(=O)O)o4)c(=O)n32)c1C | 25.5 kMESF (inactive)
CCC(=O)Oc1oc(-c2ccccc2)nc1C=Nc1ccc(C)cc1 | 3.2 kMESF (inactive)
Oc1c(I)cc(Cl)c2cccnc12 | 5.67 kMESF (inactive)
Cc1cccc2c1NC(=O)/C2=C\C(=O)c1cccs1 | 4.26 kMESF (inactive)
O=C(NCc1ccc2c(c1)OCO2)c1nc(S(=O)(=O)Cc2ccccc2)ncc1Cl | 2.56 kMESF (inactive)
CCOc1ccc(C(C)=O)cc1N1C(=O)C2C3C=CC(O3)C2C1=O (configuration not stated) | 3.31 kMESF (inactive)
O=C(c1ccccn1)c1conc1C(=O)c1ccc(Br)cc1 | 2.83 kMESF (inactive)
O=C1ON=C(c2ccccc2)/C1=C\c1ccco1 | 4.59 kMESF (inactive)
CC(C)(C)C(=O)NC(=S)NNC(=O)c1sc2ccccc2c1Cl | 4.68 kMESF (inactive)
CSC1=NS(=O)(=O)c2c(C)nn(C)c2S1 | 4.13 kMESF (inactive)
CN(O)/C=c1/ccc2c(n1)C(=O)C=CC=2 | 3.88 kMESF (inactive)
COc1ccc(N2C(=O)CC(Sc3ncn[nH]3)C2=O)c(OC)c1 (configuration not stated) | 3.82 kMESF (inactive)
O=[N+]([O-])c1cnc(Sc2ccncn2)s1 | 3.07 kMESF (inactive)
CC(=O)Oc1ccc(/C=c2\sc3ncnn3c2=O)cc1 | 3.91 kMESF (inactive)
O=C(Nc1ccc(NC(=O)c2cc3ccccc3o2)cc1)c1ccco1 | 2.1 kMESF (inactive)
CCCOc1ccc(C(=O)NNC(=S)NC(=O)c2ccco2)cc1 | 4.58 kMESF (inactive)
COc1cccc2c(=O)c(C(=O)NCc3cccs3)c[nH]c12 | 1.57 kMESF (inactive)
COc1ccc(/C=C/C(=O)C2C(=O)C=C(C)OC2=O)cc1O (configuration not stated) | 5.45 kMESF (inactive)
COc1cccc(/C=N/Nc2ccc([N+](=O)[O-])cn2)c1O | 3.24 kMESF (inactive)

SMILES | GFP fluorescence (kMESF), higher = increase
COc1cc(N=c2ssnc2Cl)c(OC)cc1Cl | 6.31 kMESF (inactive) and 6.98 kMESF (inactive)
CC[C@]1(c2ccccc2OC)ON(c2ccccc2C(F)(F)F)C1=O | 4.31 kMESF (inactive)
O=C(NC(=S)NNC(=O)c1cnccn1)c1ccc(F)cc1 | 4.26 kMESF (inactive)
COc1cc(NC(=O)c2ccccc2[N+](=O)[O-])ccc1NC(=O)c1cc2ccccc2o1 | 2.3 kMESF (inactive)
COc1ccc(NC(=O)/C(Cl)=C(/Cl)S(=O)Cc2ccccc2)cn1 (configuration not stated) | 4.75 kMESF (inactive)
COc1cc(C=C2C(=O)c3ccccc3C2=O)cc(OC)c1 | 2.05 kMESF (inactive)
O=C(Nc1nc2ccc(F)cc2s1)c1ccccn1 | 3.71 kMESF (inactive)
CC(Oc1ccc2ccccc2c1)C(=O)NNC(=S)NC(=O)c1ccco1 (configuration not stated) | 4.16 kMESF (inactive)
Cc1ccc(/C=C/C(=O)c2ccc([N+](=O)[O-])o2)cc1 | 3.92 kMESF (inactive)
Cc1ccc(S(=O)(=O)N2CCCC2C(=O)NCc2ccncc2)cc1 (configuration not stated) | 2.1 kMESF (inactive)
O=C(O)c1ccc2c(c1)C(=O)/C(=C/c1ccccc1)C2=O | 2.47 kMESF (inactive)
O=C(Oc1oc(-c2ccco2)nc1C=Nc1ccccc1)c1ccoc1 | 4.11 kMESF (inactive)
O=C(c1ccc(Cl)cc1)N1CCN(c2cccc3[nH]ccc23)CC1 | 3.33 kMESF (inactive)
O=[N+]([O-])c1ccc(O)c(/C=N/Nc2ccccn2)c1 | 5.62 kMESF (inactive)
COc1ccc([N+](=O)[O-])c(S(=O)(=O)c2ccc(Cl)cc2)n1 | 4.42 kMESF (inactive)
O=C(NC(=S)Nc1ccc2oc(=O)ccc2c1)c1cccc(Cl)c1 | 1.7 kMESF (inactive)
Cc1ccc2[nH]cc(/C=C/c3cc[n+](C)cc3)c2c1 | 4.2 kMESF (inactive)
O=C(OCC(=O)N1CCN(C(=O)c2ccco2)CC1)c1cc(-c2cccc(Br)c2)nc2ccccc12 | 4.47 kMESF (inactive)
C=CCn1c(C)c(/C=C/c2cc[n+](C)cc2)c2ccccc21 | 5.92 kMESF (inactive)
CCCCC(=O)NC(=S)NNC(=O)CCc1ccccc1 | 3.11 kMESF (inactive)
COc1ccc(C2=CC(=O)N(Nc3ccccc3)C2=O)cc1 | 6.84 kMESF (inactive)

Source: PubChem BioAssay AID2742 (NMMLSC, 2010)
